Results from PubChem BioAssay (NCI).
Several values for one entry are separate records, joined by “and”; a condition that tells them apart may be missing. Identical values can stand only once.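 Interpolation was linear, between the two tested concentrations surrounding the appropriate level; five concentrations were tested over 48 hours in 96-well plates. GI50 marks 50% less growth. At the TGI there is no net growth.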

Tested on: MDA-MB-468 breast
Experiment: inhibition of tumour cell growth, NCI panel, 48 h

Structure (SMILES)	GI50	TGI
C[C@]12CCC(=O)C[C@@H]1CC[C@@H]1[C@@H]2CC[C@]2(C)[C@@H](OC(=O)N(CCCl)N=O)CC[C@@H]12	1.06 µM	4.72 µM
Cc1cc(N2CCOCC2)nc(NCc2cc(Nc3ccnc4cc(Cl)ccc34)ccc2F)n1	1.89 µM	3.91 µM
COc1ccc(-c2c(-c3ccc(C#N)c(F)c3)nc(N3CCC(N)CC3)n(C)c2=O)cc1F	7.91 µM	23.2 µM
CC(=O)c1c(C)c2cnc(Nc3ccc(N4CCNCC4)cn3)nc2n(C2CCCC2)c1=O	3.54 µM	15.7 µM
Oc1[nH]c2ccccc2c1C=Nc1ccc(-n2cncn2)cc1	> 20.7 µM	> 25 µM
CN(C)c1ccc2[nH]c3c(C(N)=O)cc(=O)c(=O)c=3oc2c1	2.02 µM	5.52 µM
COc1ccc2nc3ccccc3c(NCCNCC(C)O)c2c1 (stereo not given)	0.3 µM	0.953 µM
CCS(=O)(=O)c1ccc(OC)c(Nc2ncc(-c3cccc(F)c3)o2)c1	> 25 µM	> 25 µM
COc1ccc2c(c1)nnc1c3cccnc3[nH]c21	0.0667 µM and 0.0556 µM	0.237 µM and 1.1 µM
COc1cc2nc(-c3ccc(C(F)(F)F)cc3)cc(OCCCNCC3CCCO3)c2cc1OC (stereo not given)	8.89 µM	23.3 µM
O=C1/C(=C/c2ccc(C(F)(F)F)cc2)COc2ccc(O)c(O)c21	1.53 µM	2.99 µM
COc1ccc(-c2[nH]ncc2Nc2cc(OC)c(OC)c(OC)c2)cc1	0.435 µM	52.3 µM
CC(C)(C)[Si](C)(C)OC1[C@@H](COC(=O)NC(=O)CCl)O[C@@H](n2cnc3c(N)ncnc32)[C@H]1O[Si](C)(C)C(C)(C)C (stereo not given in full)	3.84 µM	11.1 µM
Fc1ccc(Nc2nc(Nc3ccc(-c4nc5ccccc5[nH]4)cc3)c3cn[nH]c3n2)cc1	1.91 µM	3.74 µM
CCN1C(=O)N(CC)C2C1N=C(SC)N2/N=C/C=C/c1ccccc1OC (stereo not given)	0.256 µM	0.729 µM
COc1cc(-c2ccc[nH]2)[nH]c1/C=C1\N=C(C)C(CC(=O)OCC(C)(C)C)=C1C	0.082 µM	1.19 µM
COc1cnccc1Nc1nc(-c2nn(Cc3c(F)cc(OCCO)cc3F)c3ccccc23)ncc1OC	2.26 µM	10.6 µM
S=C(SSC(=S)N1CCCCC1)N1CCCCC1	16.9 µM	69.8 µM
O=C1/C(=C/c2ccc([N+](=O)[O-])o2)Oc2ccc(Cl)cc21	1.55 µM	3.45 µM
COc1cc(C2NC(=O)C(C#N)=C(Nc3cccc(C)c3)S2)ccc1O (stereo not given)	> 100 µM	> 100 µM
CCOC(=O)/C=C1/SC(=Nc2ccc(C#N)cc2)N(Cc2ccco2)C1=O	2.97 µM	14.2 µM
O=C1C(Cl)=C(NCCCN(CCCNC2=C(Cl)C(=O)c3ccccc3C2=O)C2=C(Cl)C(=O)c3ccccc3C2=O)C(=O)c2ccccc21	1.21 µM	2.87 µM
O=C1Cc2cc(CCN3CCNCC3)c(Cl)cc2N1	2.24 µM	7.42 µM

Structure (SMILES)	GI50	TGI
Cc1cc(N(CCNc2ccnc3cc(Cl)ccc23)Cc2ccc3c(c2)OCO3)nc(N2CCCC2)n1	1.47 µM	3.74 µM
C(=N\Nc1ccc2ccccc2n1)/c1ccccn1	0.313 µM	2.46 µM
O=C(CI)Nc1ccc(Br)cc1	1.83 µM	3.74 µM
C=C(C)C(=O)Nc1ccc(-c2c(-c3ccc(Oc4nccc(C)n4)c(F)c3)c3c(N)ncnc3n2C)cc1	1.83 µM	6.83 µM
Cc1c(C(N)=O)sc2nc(C)n(/N=c3\scc(-c4ccccc4)n3Cc3ccccc3)c(=O)c12	2.65 µM	> 100 µM
CC12O[C@H](C[C@@H](OC(=O)CCC(=O)O)[C@H]1O)n1c3ccccc3c3c4c(c5c6ccccc6n2c5c31)C(=O)NC4=O	1.72 µM	10.8 µM
CCc1c(C)c2cc(-n3c(-c4ccc(OC)cc4)csc3=N)c(O)c(C)c2oc1=O	1.93 µM	7.76 µM
CCC(=O)Nc1nnc(Cc2ccc(OC)c(OC)c2)s1	> 100 µM	> 100 µM
CNc1cc(-c2cccc(OC(F)(F)F)c2)nc2ccc(N3CCCC3)cc12	2.11 µM and 1.83 µM	3.87 µM and 3.49 µM
COc1ccc2c(c1)-c1c(c3cc(OC)ccc3n(CCN(C)C)c1=O)C2=O	1.75 µM	9.19 µM
CCCCCCCCN=C(NCCCCCCCC)SCc1cccc2ccccc12	1.41 µM	2.81 µM
CN1CCN(c2ccc(NC3=CC(=O)c4ncncc4C3=O)cc2)CC1	0.189 µM	0.416 µM
CCOCCOCCOCCOCCOCCOCCOCCOCCOCCO (tested in a mixture with another compound)	0.372 µM	2.18 µM
O=C1NC(=NCCc2ccc(Br)cc2)S/C1=C\c1ccc2ncccc2c1	> 16.5 µM	> 25 µM
COc1ccc([I+]c2ccc(OC)cc2)cc1	0.256 µM	17.9 µM
CNC(=O)c1cc(Oc2ccc(NC(=O)Nc3cc(C(C)(C)C)nn3-c3ccc4ncccc4c3)c(F)c2)ccn1	1.95 µM and 2.43 µM	4.53 µM and 5.19 µM
CC/C=C\C[C@H]1C/C=C2/C(=O)C(Cl)=C[C@@H]2C/C=C\CCCC(=O)O1	0.309 µM	0.869 µM
CSc1nc2c(c(=O)n1C)C(c1ccccc1)C1=C(N2)/C(=C/c2ccccc2)CCC1 (stereo not given)	2.84 µM	29.7 µM
COC(=O)CC1=C(C)/C(=C/c2[nH]c(-c3ccc[nH]3)cc2OC)N=C1C	0.162 µM	1.76 µM
COc1cc(C(=O)n2nc(N)c3c(C)cc(C)nc32)cc(OC)c1OC	2.92 µM	> 100 µM
COC(=O)c1cc(-c2ccc(S(C)(=O)=O)cc2)[nH]c1N/N=C/c1c(Cl)cccc1Cl	4.27 µM	> 100 µM
CC1=C[C@@H]2c3c(c(O)c(O)c4oc5cc(O)cc(O)c5c(=O)c34)[C@@H](c3cc(O)c(O)c4oc5cc(O)cc(O)c5c(=O)c34)[C@@H]2C(C)(C)C1	3.35 µM	16.2 µM
